Like-named read-outs stand apart in the source and are kept apart here.
Biological target: FGFR4-WT (Homo sapiens (Human), UniProt P22455)
Experiment: Omnia assay for potency assessment against FGFR4 enzyme
Format: biochemical
Procedure: A 10× stock solution of FGFR4-WT (PR4380C), (from Invitrogen, Carlsbad, Calif.) corresponding to method a in Table 7, was prepared as described below. Alternatively, a 10× stock solution of FGFR4-WT (F01-11G), (SignalChem, Richmond, BC) corresponding to method b in Table 7, was prepared as described below. A solution of 1.4×ATP (AS001A) and 5× Tyr-Sox conjugated peptide substrate (KNZ3101) were prepared in 1× kinase reaction buffer consisting of 20 mM Tris, pH 7.5, 5 mM MgCl2, 1 mM EGTA, 5 mM β-glycerophosphate, 5% glycerol (10× stock, KB002A) and 0.2 mM DTT (DS001A). […] The serially diluted compounds were prepared on a Tecan EVO100. A second addition of 10 μl of Tyr-Sox FGFR4 substrate was added to each well and the kinase reactions were started with the addition of 35 μL of 1.4×ATP. The reactions were monitored every 71 seconds for 240 minutes at λex360/λem485 in a Synergy plate reader from BioTek (Winooski, Vt.).

[1] = method a: [FGFR4-WT]=10 nM (Invitrogen), [ATP]=300 uM, [Y10-Sox]=10 uM
[2] = method b: [FGFR4-WT]=2.5 nM (SignalChem), [ATP]=250 uM, [Y10-Sox]=10 uM

FGFR4-WT, sequence (P22455 22-802): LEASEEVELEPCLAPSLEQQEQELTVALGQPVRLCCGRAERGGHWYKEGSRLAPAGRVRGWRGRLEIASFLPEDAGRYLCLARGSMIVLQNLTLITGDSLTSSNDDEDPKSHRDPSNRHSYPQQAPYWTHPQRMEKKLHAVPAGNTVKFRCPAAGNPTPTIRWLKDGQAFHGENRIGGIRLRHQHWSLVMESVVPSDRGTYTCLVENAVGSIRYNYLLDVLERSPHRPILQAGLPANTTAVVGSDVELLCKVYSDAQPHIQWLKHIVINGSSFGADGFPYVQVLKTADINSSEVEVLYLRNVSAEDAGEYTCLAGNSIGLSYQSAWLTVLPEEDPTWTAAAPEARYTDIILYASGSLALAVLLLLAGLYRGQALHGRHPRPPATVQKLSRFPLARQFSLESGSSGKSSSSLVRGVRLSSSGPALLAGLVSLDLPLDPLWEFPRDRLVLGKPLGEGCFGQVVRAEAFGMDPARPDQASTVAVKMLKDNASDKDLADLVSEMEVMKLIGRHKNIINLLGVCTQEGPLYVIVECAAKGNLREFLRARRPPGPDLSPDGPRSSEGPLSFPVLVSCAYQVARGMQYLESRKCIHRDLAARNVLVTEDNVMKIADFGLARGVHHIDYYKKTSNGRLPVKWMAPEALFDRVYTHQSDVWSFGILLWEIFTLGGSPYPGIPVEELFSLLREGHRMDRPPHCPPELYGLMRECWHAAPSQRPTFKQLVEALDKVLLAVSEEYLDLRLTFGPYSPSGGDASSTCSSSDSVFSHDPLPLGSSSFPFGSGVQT

Structure (SMILES) | IC50 [1] [nM] | further results
C=CC(=O)Nc1ccccc1Nc1ncc2c(n1)N(C)C(=O)N(C1CCCCC1)C2 [Compound I-52] | 501 to 999 | 
C=CC(=O)NC1CCCCC1Nc1ncc2c(n1)N(CC1CC1)C(=O)N(c1cc(OC)cc(OC)c1Cl)C2 (stereo not drawn) [Compound I-101] | 101 to 500 | 
C=CC(=O)Nc1cc(-c2nccs2)ccc1Nc1ncc2c(n1)N(C)C(=O)N(c1cc(OC)cc(OC)c1)C2 [Compound I-84] | 501 to 999 | 
C=CCCN1C(=O)N(c2cc(OC)cc(OC)c2)Cc2cnc(Nc3ccccc3NC(=O)C=C)nc21 [Compound I-57] | < 100 | 
C=CC(=O)Nc1cc(N2CCN(CC)CC2)ccc1Nc1ncc2c(n1)N(C)C(=O)N(c1cc(OC)cc(OC)c1)C2 [Compound I-15] |  | IC50 [2]: < 100 nM
C=CC(=O)Nc1cc(C(F)(F)F)ccc1Nc1ncc2c(n1)N(Cc1ccccc1)C(=O)N(c1c(Cl)c(OC)cc(OC)c1Cl)C2 [Compound I-10] |  | IC50 [2]: > 1000 nM
C=CC(=O)Nc1ccccc1Nc1ncc2c(n1)N(Cc1ccc(Cl)c(OC)c1)C(=O)N(c1c(Cl)c(OC)cc(OC)c1Cl)C2 [Compound I-24] |  | IC50 [2]: < 100 nM
C=CC(=O)N(C)c1ccccc1Nc1ncc2c(n1)N(C)C(=O)N(c1c(Cl)c(OC)cc(OC)c1Cl)C2 [Compound I-29] | 101 to 500 | 
C=CC(=O)Nc1ccc(N2CCN(CC)CC2)cc1Nc1ncc2c(n1)N(C)C(=O)N(c1cc(OC)cc(OC)c1)C2 [Compound I-30] | < 100 | 
C=CC(=O)Nc1ccccc1Nc1ncc2c(n1)N(CC(=O)OC(C)(C)C)C(=O)N(c1cc(OC)cc(OC)c1)C2 [Compound I-96] | > 1000 | 
C=CC(=O)Nc1ccccc1Nc1ncc2c(n1)N(Cc1ccc(F)c(N)c1)C(=O)N(c1c(Cl)c(OC)cc(OC)c1Cl)C2 [Compound I-144] | < 100 | 
C=CC(=O)Nc1cc(C2CCN(CC)CC2)ccc1Nc1ncc2c(n1)N(C)C(=O)N(c1cc(OC)cc(OC)c1)C2 [Compound I-54] | < 100 | 
CCC(=O)Nc1ccccc1Nc1ncc2c(n1)N(C)C(=O)N(c1c(Cl)c(OC)cc(OC)c1Cl)C2 [Compound I-235] |  | IC50 [2]: 101 to 500 nM
C=CC(=O)Nc1ccccc1Oc1ncc2c(n1)N(C)C(=O)N(c1c(Cl)c(OC)cc(OC)c1Cl)C2 [Compound I-65] | < 100 | 
C=CC(=O)Nc1cc(C(=O)NC2CCN(C)CC2)ccc1Nc1ncc2c(n1)N(C)C(=O)N(c1c(Cl)c(OC)cc(OC)c1Cl)C2 [Compound I-150] | < 100 | 
C=CC(=O)Nc1ccccc1Nc1ncc2c(n1)N(C)C(=O)N(c1cc(OC)cc(OC)c1F)C2 [Compound I-108] | < 100 | 
C=CC(=O)Nc1cc(-c2nnn(C)n2)ccc1Nc1ncc2c(n1)N(C)C(=O)N(c1c(Cl)c(OC)cc(OC)c1Cl)C2 [Compound I-145] | < 100 | 
C=CC(=O)Nc1ccccc1Nc1ncc2c(n1)N(Cc1cccc(C#N)c1)C(=O)N(c1cc(OC)cc(OC)c1)C2 [Compound I-90] | < 100 | 
C=CC(=O)Nc1ccccc1Nc1ncc2c(n1)N(Cc1ccnc(N)c1)C(=O)N(c1c(Cl)c(OC)cc(OC)c1Cl)C2 [Compound I-135] | < 100 | 
C=CC(=O)Nc1ccccc1Nc1ncc2c(n1)N(C)C(=O)N(C1CC1)C2 [Compound I-51] | > 1000 | 
C=CC(=O)Nc1ccccc1Nc1ncc2c(n1)N(CC1CC1)C(=O)N(c1c(Cl)c(OC)cc(OC)c1Cl)C2 [Compound I-130] | < 100 | 
C=CC(=O)N(C)c1ccccc1Nc1ncc2c(n1)N(Cc1ccccc1)C(=O)N(c1c(Cl)c(OC)cc(OC)c1Cl)C2 [Compound I-37] | 101 to 500 | 
C=CC(=O)Nc1cc(-c2cnn(C)c2)ccc1Nc1ncc2c(n1)N(C)C(=O)N(c1cc(OC)cc(OC)c1)C2 [Compound I-77] | < 100 | 
C=CC(=O)Nc1ccccc1Nc1ncc2c(n1)N(CC1CC1)C(=O)N(c1cc(OC)cc(OC)c1F)C2 [Compound I-109] | < 100 | 

Structure (SMILES) | IC50 [1] [nM] | further results
C=CS(=O)(=O)Nc1ccccc1Nc1ncc2c(n1)N(C)C(=O)N(c1cc(OC)cc(OC)c1)C2 [Compound I-67] | < 100 | 
C=CC(=O)N[C@H]1CCCC[C@H]1Nc1ncc2c(n1)N(C)C(=O)N(c1ccc(OC)cc1)C2 [Compound I-222] | > 1000 | 
C=CC(=O)N[C@H]1CCCC[C@H]1Nc1ncc2c(n1)N(Cc1ccccc1)C(=O)N(c1c(Cl)c(OC)cc(OC)c1Cl)C2 [Compound I-82] |  | IC50: < 100 nM
C=CC(=O)Nc1cc(N2CCOCC2)ccc1Nc1ncc2c(n1)N(C)C(=O)N(c1cc(OC)cc(OC)c1)C2 [Compound I-17] | < 100 | 
C=CC(=O)Nc1ccccc1Nc1ncc2c(n1)N(C)C(=O)N(c1ccccc1)C2 [Compound I-38] | 501 to 999 | 
C=CC(=O)Nc1ccccc1Nc1ncc2c(n1)N(C1CC1)C(=O)N(c1cc(OC)cc(OC)c1)C2 [Compound I-34] | < 100 | 
C=CC(=O)NC1CNC(=O)CC1Nc1ncc2c(n1)N(C)C(=O)N(c1c(Cl)c(OC)cc(OC)c1Cl)C2 (stereo not drawn) [Compound I-196] | < 100 | 
C=CC(=O)Nc1ccc(C)cc1Nc1ncc2c(n1)N(C)C(=O)N(c1cc(OC)cc(OC)c1)C2 [Compound I-49] | < 100 | 
C=CC(=O)Nc1ccccc1Nc1ncc2c(n1)N(C1CC1)C(=O)N(c1c(Cl)c(OC)cc(OC)c1Cl)C2 [Compound I-23] |  | IC50 [2]: < 100 nM
C=CC(=O)Nc1ccccc1Nc1ncc2c(n1)N(Cc1nccs1)C(=O)N(c1c(Cl)c(OC)cc(OC)c1Cl)C2 [Compound I-91] | < 100 | 
C=CC(=O)Nc1ccccc1Nc1ncc2c(n1)N(CC)C(=O)N(CC)C2 [Compound I-120] | > 1000 | 
C=CC(=O)Nc1cc(OCCOC)ccc1Nc1ncc2c(n1)N(Cc1ccccc1)C(=O)N(c1cc(OC)cc(OC)c1)C2 [Compound I-14] |  | IC50 [2]: < 100 nM
C=CC(=O)Nc1cc(C2=CCN(CC)CC2)ccc1Nc1ncc2c(n1)N(C)C(=O)N(c1cc(OC)cc(OC)c1)C2 [Compound I-56] | < 100 | 
C=CC(=O)Nc1cc(-c2cnn(C)c2)ccc1Nc1ncc2c(n1)N(C)C(=O)N(c1c(Cl)c(OC)cc(OC)c1Cl)C2 [Compound I-141] | < 100 | 
C=CC(=O)Nc1ccccc1Nc1ncc2c(n1)N(CCC(O)CO)C(=O)N(c1cc(OC)cc(OC)c1)C2 (stereo not drawn) [Compound I-58] | < 100 | 
C=CC(=O)Nc1cc(Cl)c(Cl)cc1Nc1ncc2c(n1)N(Cc1ccccc1)C(=O)N(c1c(Cl)c(OC)cc(OC)c1Cl)C2 [Compound I-11] |  | IC50 [2]: 501 to 999 nM
C=CC(=O)Nc1ccccc1Nc1ncc2c(n1)N(C)C(=O)N(c1cc(OC)cc(OC)c1Cl)C2 [Compound I-75] | < 100 | 
C=CC(=O)N[C@H]1CCCC[C@H]1Nc1ncc2c(n1)N(Cc1ccn(C)n1)C(=O)N(c1c(Cl)c(OC)cc(OC)c1Cl)C2 [Compound I-147] | < 100 | 
C=CC(=O)Nc1cc(N2CCCCC2)ccc1Nc1ncc2c(n1)N(C)C(=O)N(c1cc(OC)cc(OC)c1)C2 [Compound I-31] | < 100 | 
C=CC(=O)Nc1ccccc1Nc1ncc2c(n1)N(CC1CCN(C(=O)OC(C)(C)C)CC1)C(=O)N(c1cc(OC)cc(OC)c1)C2 [Compound I-60] | < 100 | 
C=CC(=O)N[C@@H]1CCCC[C@@H]1Nc1ncc2c(n1)N(Cc1ccccc1)C(=O)N(c1c(Cl)c(OC)cc(OC)c1Cl)C2 [Compound I-66] | > 1000 | 
C=CC(=O)Nc1ccc(-c2cnn(C)c2)cc1Nc1ncc2c(n1)N(C)C(=O)N(c1cc(OC)cc(OC)c1)C2 [Compound I-27] | < 100 | 
C=CC(=O)Nc1ccccc1Nc1ncc2c(n1)N(Cc1csc(C)n1)C(=O)N(c1c(Cl)c(OC)cc(OC)c1Cl)C2 [Compound I-134] | < 100 | 
C=CC(=O)Nc1cc(CN2CCN(CC)CC2)ccc1Nc1ncc2c(n1)N(C)C(=O)N(c1cc(OC)cc(OC)c1)C2 [Compound I-122] | 101 to 500 | 

From US9695132B2, “Heteroaryl compounds and uses thereof” (Celgene CAR LLC, priority 2013, dated 2017)
